According to BindingDB's records for PubMed 10336510 (Virginia Commonwealth University, 1999):
pKi: −log10 of the molar value.

What was measured:
[1] = molecular target: Sodium-dependent dopamine transporter (Rattus norvegicus, UniProt P23977)
[2] = molecular target: Norepinephrine transporter (Rattus norvegicus, UniProt Q9JIA2)
[3] = molecular target: Sodium-dependent serotonin transporter (Rattus norvegicus, UniProt P31652)
Sequence of Sodium-dependent serotonin transporter (P31652 whole entry): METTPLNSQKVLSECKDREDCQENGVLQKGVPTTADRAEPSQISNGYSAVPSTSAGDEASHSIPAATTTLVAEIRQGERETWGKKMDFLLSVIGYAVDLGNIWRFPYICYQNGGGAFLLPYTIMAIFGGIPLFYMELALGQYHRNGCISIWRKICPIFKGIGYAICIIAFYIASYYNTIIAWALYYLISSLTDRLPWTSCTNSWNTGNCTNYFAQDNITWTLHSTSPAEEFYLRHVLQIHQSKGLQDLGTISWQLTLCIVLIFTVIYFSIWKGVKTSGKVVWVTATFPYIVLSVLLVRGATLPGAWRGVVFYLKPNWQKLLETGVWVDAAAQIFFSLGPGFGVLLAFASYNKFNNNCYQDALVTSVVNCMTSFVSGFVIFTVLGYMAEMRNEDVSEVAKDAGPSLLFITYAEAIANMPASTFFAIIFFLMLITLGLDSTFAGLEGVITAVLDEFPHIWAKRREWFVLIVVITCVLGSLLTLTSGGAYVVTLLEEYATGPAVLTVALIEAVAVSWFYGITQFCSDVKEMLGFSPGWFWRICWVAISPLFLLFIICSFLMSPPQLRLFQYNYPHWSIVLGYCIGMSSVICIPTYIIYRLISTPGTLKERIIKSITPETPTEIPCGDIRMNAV

Sequence of Sodium-dependent dopamine transporter (P23977 whole entry): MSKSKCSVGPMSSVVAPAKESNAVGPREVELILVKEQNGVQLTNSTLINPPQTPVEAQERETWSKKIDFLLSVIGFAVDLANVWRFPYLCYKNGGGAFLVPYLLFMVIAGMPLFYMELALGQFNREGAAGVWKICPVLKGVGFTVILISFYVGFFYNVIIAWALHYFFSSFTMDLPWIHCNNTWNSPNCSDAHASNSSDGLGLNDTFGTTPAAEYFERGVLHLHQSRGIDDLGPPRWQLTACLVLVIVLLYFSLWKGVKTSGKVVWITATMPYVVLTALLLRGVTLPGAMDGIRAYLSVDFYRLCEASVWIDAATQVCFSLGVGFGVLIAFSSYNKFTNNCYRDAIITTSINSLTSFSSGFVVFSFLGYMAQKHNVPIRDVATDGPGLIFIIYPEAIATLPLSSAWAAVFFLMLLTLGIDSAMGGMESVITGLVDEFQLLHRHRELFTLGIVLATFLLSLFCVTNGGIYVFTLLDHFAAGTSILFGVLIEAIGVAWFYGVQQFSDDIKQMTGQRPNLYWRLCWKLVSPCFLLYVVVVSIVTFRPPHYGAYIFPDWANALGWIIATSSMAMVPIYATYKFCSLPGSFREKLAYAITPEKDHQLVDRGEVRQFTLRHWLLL

Compound | pKi [1] | pKi [2] | pKi [3]
CC(C)OC(=O)[C@@H]1C2CC[C@H](C[C@@H]1c1ccc(I)cc1)N2C | 9.40 | 6.55 | 7.18
CN1[C@H]2CC[C@@H]1[C@@H](C(=O)N1CCCC1)[C@@H](c1ccc(I)cc1)C2 [RTI-229] | 9.43 | 6.00 | 5.76
COC(=O)[C@H]1[C@@H](c2ccc(Cl)cc2)C[C@@H]2CC[C@H]1N2 [RTI-110] | 9.21 | 8.26 | 8.39
COC(=O)[C@H]1[C@@H](c2ccc(Br)cc2)C[C@@H]2CC[C@H]1N2C [RTI-51] | 8.77 |  | 7.97
COC(=O)[C@H]1[C@@H](c2ccc(Cl)cc2)C[C@@H]2CC[C@H]1N2C [RTI-31] | 8.95 |  | 7.35
COC(=O)[C@H]1[C@@H](c2ccccc2)C[C@@H]2CC[C@H]1N2C [methyl (1R,2S,3S,5S)-8-methyl-3-phenyl-8-azabicyclo[3.2.1]octane-2-carboxylate] | 7.64 | 6.04 | 
CN1C2CC[C@@H]1C[C@H](c1ccc(Cl)cc1)C2C(=O)N1CCCC1 (stereo partly specified) [RTI-147] | 8.86 | 5.40 | < 5.00
CC(C)OC(=O)[C@@H]1C2CC[C@H](C[C@@H]1c1ccc(Cl)cc1)N2C | 8.85 | 6.11 | 5.85
COC(=O)C1C2CC[C@H](C[C@@H]1c1ccc(C)cc1)N2C (stereo partly specified) [RTI-32] | 8.77 | 7.22 | 
COC(=O)[C@H]1[C@@H](c2ccc(Cl)c(C)c2)C[C@@H]2CC[C@H]1N2C | 9.10 | 7.44 | 7.98
COC(=O)C1C2CC[C@H](C[C@@H]1c1ccc(N)cc1)N2C (stereo partly drawn) [(3S,8R)-3-(4-Amino-phenyl)-8-methyl-8-aza-bicyclo[3.2.1]octane-2-carboxylic acid methyl ester] | 8.01 | 6.82 | 5.29
CN1[C@H]2CC[C@@H]1[C@@H](C(=O)O)[C@@H](c1ccc(Cl)cc1)C2 [RIT-70] | 5.68 | < 5.00 | < 5.00
Cc1ccc([C@H]2C[C@@H]3CC[C@H]([C@H]2C(=O)Oc2ccccc2)N3C)cc1 [RTI-120] | 8.49 | 5.23 | < 5.00
COC(=O)[C@@H]1C2CCC(C[C@@H]1c1ccc(Cl)c(Cl)c1)N2C (stereo partly drawn) [(2S,3S)-methyl 3-(3,4-dichlorophenyl)-8-methyl-8-aza-bicyclo[3.2.1]octane-2-carboxylate] | 9.10 | 7.75 | 8.51
CN1[C@H]2CC[C@@H]1[C@@H](C(=O)Oc1ccccc1)[C@@H](c1ccc(Cl)cc1)C2 [RTI-113] | 8.70 | 5.53 | 5.63
